Test results taken from patent publication US4596710A, “Gallium chloride as a new anti-cancerous drug” (priority 1981, dated 1986).

How the values were obtained:
[1] = test system: left axillary lymphadenopathy; test: 2nd patient: gallium chloride treatment, tumour response
Source text: A complete check-up to seek primary localisation was undertaken. In view of the negative nature of this check-up, the diagnosis of cutaneous primary tumour, developed at the expense of the cutaneous appendants (eccrine tumour) was retained.

malignant melanoma = test: 3rd patient: gallium chloride treatment, tumour response; format: in vivo, human
Source text: On Sept. […] This was the case. . . […] Up to Nov. […] It was from Sept.

[2] = test system: epidermoid carcinoma of the oesophagus; test: 5th patient: gallium chloride treatment, tumour response; format: in vivo, human
Source text: A person . . . Michel: the diagnosis of differenciated, mature and infiltrating epidermoid carcinoma of the oesophagus was made on Sept. 3rd, 1981. This was a voluminous tumour, extending from 23 to 32 cm, from the dental arches (according to the data from the endoscopy) with an invasion of the rear face of the origin of the left principal bronchus and the carina tracheae. In the bronchoscopy of Sept. 8th, 1981, there was a necrotic tumoral bud obstructing the light of the bronchus by two-thirds.
(§1) Gallium chloride therapy was started on Sept.
A further bronchoscopy was made on Oct. […] The existence of a considerable sub-jacent bronchial stasis and of daily dispnoeic attacks in the evening led to treatment of this bronchial tumour by laser on Oct. 20th, 1981. […] Feeding by the oral route was stopped, as well as the gallium chloride treatment and, after parenteral feeding, a celestine prosthesis was positioned by endoscopic route on Nov. 3rd, 1981. The sequels of the positioning of the prosthesis was marked by the appearance of an infectious bronchial syndrome which led to death of the patient on Nov. 18th, 1981.

[3] = Clinical and biological tolerance in patients
Experimental: Mrs. […] Post-operative chemotherapy (5-fluoro-uracil and endoxan) was then effected up to April 1979. At that time, […] underwent a second operation with excision of the remaining cervix and omentectomy. […] Cobalt therapy was then carried out from Nov. 5th, 1979 to Feb. 5th, 1980 on the abdomen, pelvis and diaphragm cupolas, then further chemotherapy (hexamethylmelamine) from August to October 1980. […] Treatment by gallium chloride started on Nov. 1 st, 1980 at the posology of 300 mg per day per os in three doses of 100 mg. […] An echotomograph on Dec. […] A third echotomograph was made on Jan. […] On Mar.
The treatment by gallium chloride was started on May 15th, 1981, at the posology of 600 mg/24 hours up to Sept. 20th, 1981, in association with a heparinotherapy at mini-doses. This heparinotherapy had been prescribed to prevent a phlebitis or pulmonary embolism following the surgical operation of April 1981 and had not been interrupted in order not to provoke the phenomenon of tumoral flare-up. [Calciparin (heparin calcium salt) 0.2 ml, 3 times per day by sub-cutaneous route]. […] On Sept. […] This was the case. . . […] 29th, 1981. […] Up to Nov. […] It was from Sept.
HOT... […] , was operated on May 14th, 1981 for an adenocarcinoma of the colon. […] An almost total colectomy was carried out, leaving 20 cm of sigmoid and a resection of the small bowel over a length of 15 cm. […] On Oct. […] An exploratory laparotomy was made on Nov. […] 7th, 1982.
as §1

[4] = test system: bilateral cystadenocarcinoma of the ovary; test: 1st patient: gallium chloride treatment, tumour response; format: in vivo, human
Experimental: Mrs. […] An epiploic and ganglionary invasion was discovered. Cobalt therapy was then carried out from Nov. 5th, 1979 to Feb. […] Treatment by gallium chloride started on Nov. […] An echotomograph on Dec. […] A third echotomograph was made on Jan. […] However, this was refused by the patient. On Mar.

[5] = test system: mammary cancer (tubulo-pillaryadenocarcinoma or mixed-type tumour); test: Gallium chloride therapy in bitches with mammary cancer (primary tumour or recurrence); format: in vivo, female dogs
Experimental: The anti-tumoral effect of gallium chloride was firstly studied in female dogs having spontaneous malignant tumours of the breast. Gallium chloride therapy was carried out in bitches having a mammary cancer (tubulo-pillaryadenocarcinoma or mixed-type tumour); treatment started either at the stage of the primary tumour (4 bitches) or upon a recurrence after a surgical excision (10 bitches).
(1) In the 4 bitches treated at the primary tumour stage, the following was observed:
In two cases, the treatment was continued for two months, the tumour reducing from 10×7 cm to 8.5×7 cm in one case and from 1.5×1.3 to 1.5×1.0 cm in the other case.
In the third case, the treatment could be continued for more than six months in a very old bitch of 14 years.
(2) In the 10 bitches treated at the recurrence stage, the following was observed: […]

adenocarcinoma = test: Long-term treatment of two bitches with evolutive third recurrence of mammary tumour; format: in vivo, female dogs
[6] = Acute toxicity on the mouse; format: in vivo; conditions: per os
[7] = 800 mg/24 hours oral, one month

## [Cl][Ga]([Cl])[Cl] [gallium chloride]
[1]; 300 mg per day oral
  hardness of lymphadenopathy, July 23rd, 1981: much harder
[1]; 600 mg and 300 mg alternately, oral
  lymphadenopathy, Jan. 6th, 1982: no longer perceptible
[1]; 600 mg per day oral
  diameter of lymphadenopathy, Dec. 8th, 1981: 1 cm in diameter
[1]; Jan. 6th, 1982
  dorsal osseous pains, 2nd patient: dorsal osseous pains persisted, but of mechanical type, completely calmed by rest
[1]; oral from May 20th, 1981, from end of July 1981
  regression of the lymphadenopathy: progressive regression of the lymphadenopathy
Malignant melanoma; 600 mg/24 hours with Calciparin
  general state up to Sept. 20th, 1981, 3rd patient: satisfactory, with a good appetite
Malignant melanoma; gallium chloride increased to 800 mg/24 hours from Sept. 29th, 1981
  general state / metastases after Calciparin interruption, 3rd patient: general state rapidly worsened, with appearance of a metastatic hepatomegaly of which the volume increased rapidly
[2]; 800 mg/24 hours oral from Sept. 21st, 1981
  bronchial obstruction, bronchoscopy Oct. 13th, 1981, 5th patient: the same bronchial obstruction
[2]; infectious bronchial syndrome after prosthesis, treatment already stopped
  death, 5th patient: death of the patient on Nov. 18th, 1981
[3]; 300 mg per day per os, two months uninterrupted
  clinical and biological tolerance, 1st patient: good
[3]; [7]
  renal, hepatic, blood cells count disturbance, 5th patient: no renal nor hepatic disturbance nor disturbances in the blood cells count
  tolerance, 5th patient: tolerated perfectly well, both from the clinical and biological point of view
[3]; 800 mg/24 hours, from Nov. 27th, 1981
  anorexia leading to stop of therapy, 3rd patient: virtually total anorexia
[3]; 500 then 300 mg/24 hours oral, without renal disorders
  tolerance, 4th patient: perfect clinically and biologically (without renal disorders in particular)
[3]; Jan. 6th, 1982
  blood cells count, hepatic balance, calcemia, phosphatemia, 2nd patient: normal
  general state, 2nd patient: good, with a normal appetite
  inflammatory balance (haptoglobin), 2nd patient: normal
[3]; Jan. 6th, 1982, normal
  creatinine, 2nd patient: 88.50 µmol/L
[3]; Jan. 6th, 1982, oral since May 20th, 1981
  tolerance, 2nd patient: perfectly well tolerated, without any digestive disorders or neurological, cardiac or cutaneous effects
[3]; Jan. 6th, 1982, unchanged since beginning of treatment
  weight, 2nd patient: 71 kg
[3]; Sept. 29th to Nov. 27th, 1981
  tolerance of 800 mg/24 hours, 3rd patient: tolerated up to Nov. 27th, 1981
[3]; after Mar. 20th, 1981
  digestive intolerance leading to interruption, 1st patient: had to be interrupted due to digestive intolerance
[3]; up to Nov. 27th, 1981
  renal function and blood cells count, 3rd patient: normal
[3]; up to Sept. 20th, 1981, 600 mg/24 hours with Calciparin, stable
  weight, 3rd patient: 70 kg
[4]; 300 mg per day per os
  clinical state, end of January 1981: very satisfactory
  superficial palpable mass, end of January 1981: had disappeared
  volume of the mass of the Douglas pouch, echotomograph Jan. 7th, 1981: clearly decreased
[4]; 300 mg per day per os from Nov. 1st, 1980, 3.5 cm on Oct. 27th
  mass of the Douglas pouch, echotomograph Dec. 9th, 1980: maintained the same diameter
[4]; 300 mg per day per os, 4.4 by 3 cm before treatment
  superficial mass / tissue of infiltration, echotomograph Dec. 9th, 1980: the tissue of infiltration had become a sclerous tissue
[4]; after interruption of gallium chloride
  death, 1st patient: death occurred on May 6th, 1981
[5]; 5 mg/kg, if duration of treatment extended
  results in mammary tumours in the bitch: good results
[5]; 5 mg/kg, tumour becomes very hard
  regression of the tumour, overall: Regression of the tumour remains weak
[5]; 4 bitches treated at primary tumour stage
  regression of the tumour (primary tumour stage): a regression of the tumour in the other three cases
[5]; 4 bitches treated at primary tumour stage, 1 to 5 mg/kg oral
  death (primary tumour stage): one death on the 7th day
[5]; 10 bitches at recurrence stage, recurrent tumour smaller than 0.6 cm at beginning, two months of treatment
  complete remission: three complete remissions after two months of treatment
[5]; 10 bitches at recurrence stage, three months of treatment
  partial regression of the tumour: in 5 bitches, a partial regression of the tumour with hardening thereof
[5]; 10 bitches treated at recurrence stage
  death (recurrence stage): one death in the third week of treatment, due to a pulmonary metastasis
[5]; recurrence stage
  biopsies / histology at the end of the treatment: tumoral cells persisted, but a histological study suggested an increase in the amorphous ground substance with a cellular rarefaction
[5]; recurrence stage, 1 mg/kg one month, 2.5 mg/kg fifteen days, 5 mg/kg last fifteen days
  tumour growth in one bitch: persistent growth of the tumour in one bitch
[5]; therapeutic strategy with surgical treatment after gallium chloride
  survival: seven out of eight bitches are alive
[5]; third case, bitch of 14 years, 2.5 mg/kg, then 1 mg/kg
  tumour response after resumption of the treatment: regressed after resumption of the treatment
[5]; third case, bitch of 14 years, 5 mg/kg, tumour 3.6×2 cm, doubled in four months preceding treatment
  tumour development during first two months of treatment: did not develop
adenocarcinoma; 2.5 mg/kg per os from 27.2.1981, 1.2 cm on 2.27.1981
  size of the tumour, second bitch (BEL), 4.1.1981: 1.8 cm in diameter
adenocarcinoma; 2.5 mg/kg per os to 30.4.1981
  size of the tumour, second bitch (BEL), 4.30.1981: 2.3 cm in diameter
adenocarcinoma; 10 mg/kg per os, up to Dec. 28th, 1981
  tumour evolution after 10.14.1981, first bitch (OUD): tumoral stabilisation
adenocarcinoma; 5.1.1982
  pulmonary radiograph, second bitch (BEL): normal
adenocarcinoma; Dec. 28th, 1981, good general state during preceding days
  death, first bitch (OUD): suddenly died (good general state during the preceding days) of a myocardial infarction with acute oedema of the lung and overall heart failure
adenocarcinoma; after death Dec. 28th, 1981
  autopsy, first bitch (OUD): no hepatic nor pulmonary metastases a small nodule of 1 cm in the spleen
adenocarcinoma; per os
  tumour growth after 9.1.1981, second bitch (BEL): the growth clearly slowed down with an obvious change in the consistency of the tumour
adenocarcinoma; up to surgical excision
  tumour growth since Nov. 3rd, 1981, second bitch (BEL): virtually not enlarged since Nov. 3rd, 1981
adenocarcinoma; upon opening of excised tumour
  excised piece, second bitch (BEL): considerable necrosis occupying virtually all the tumour
[6]
  LD50: 1790 mg/kg
